Results taken from patent EP4810483A1, “6- AND 5-HETEROARYL DERIVATIVES AND USE THEREOF” (CMS Research & Development Pte. Ltd., priority 2023, dated 2025).

Assays:
[1] = target: CYP3A4 (Homo sapiens, UniProt P08684); test: Drug-drug interaction evaluation: CYP inhibition in human liver microsomes (cocktail method)
Procedure: (§1) The cocktail method using specific probe substrates for CYP1A2, CYP2C9, CYP2C19, CYP2D6 and CYP3A was used to evaluate the inhibitory effect of the compounds on the activity of human liver microsomal cytochrome P450 isoenzymes (CYP1A2, CYP2C9, CYP2C19, CYP2D6 and CYP3A).
(§2) Human liver microsomes, probe substrates, positive control inhibitors, and reduced nicotinamide adenine dinucleotide phosphate (NADPH).
(§3) To the corresponding wells of a reaction plate, 20 µL of substrate solution was added; to blank wells, 20 µL of potassium phosphate buffer was added.
(§4) To the corresponding wells, 2 µL of test compound and positive control working solution were added; to inhibitor-free and blank wells, 2 µL of solvent was added.
(§5) Human liver microsome working solution was prepared, and 158 µL of human liver microsome working solution was added to each well of the reaction plate.
(§6) The plate was pre-incubated at 37.0°C for 10 minutes.
(§7) To start the reaction, 20 µL of NADPH cofactor working solution was added to the reaction plate.
(§8) After incubation in a 37.0°C water bath with mixing for 10 minutes, 400 µL of stop solution was added to terminate the reaction.
(§9) The sample plate was centrifuged at 4000 rpm for 20 minutes.
(§10) 200 µL of supernatant was taken and mixed with 100 µL of pure water as diluent, and the plate was shaken to mix well.
(§11) Analysis was performed by liquid chromatography-tandem mass spectrometry (LC-MS/MS).
(§12) Using the percentage of remaining activity as the ordinate and the test compound concentration as the abscissa, a non-linear regression analysis was performed with a three-parameter or four-parameter model using XL fit software to calculate the IC50 value.
(§13) y = (max)/(1 + (((x)/(IC50)))^−hillslope) [formula]
(§14) y = min + (max−min)/(1 + (((x)/(IC50)))^−hillslope) [formula]
(§15) max = maximum enzyme activity; min = minimum enzyme activity; x = concentration of test compound or positive control inhibitor; y = enzyme activity at the corresponding concentration; hillslope = slope; IC50 = half-maximal inhibitory concentration. The four-parameter equation was used when the minimum enzyme activity was within ±10%; otherwise the three-parameter equation was used.

[2] = target: CYP2C9 (Homo sapiens, UniProt P11712); test: as above
Procedure: as §1, §2, §3, §4, §5, §6, §7, §8, §9, §10, §11, §12, §13, §14, §15

[3] = target: T1, CYP1A2 (Homo sapiens, UniProt P05177); test: as above
T1 sequence (P05177 1-516): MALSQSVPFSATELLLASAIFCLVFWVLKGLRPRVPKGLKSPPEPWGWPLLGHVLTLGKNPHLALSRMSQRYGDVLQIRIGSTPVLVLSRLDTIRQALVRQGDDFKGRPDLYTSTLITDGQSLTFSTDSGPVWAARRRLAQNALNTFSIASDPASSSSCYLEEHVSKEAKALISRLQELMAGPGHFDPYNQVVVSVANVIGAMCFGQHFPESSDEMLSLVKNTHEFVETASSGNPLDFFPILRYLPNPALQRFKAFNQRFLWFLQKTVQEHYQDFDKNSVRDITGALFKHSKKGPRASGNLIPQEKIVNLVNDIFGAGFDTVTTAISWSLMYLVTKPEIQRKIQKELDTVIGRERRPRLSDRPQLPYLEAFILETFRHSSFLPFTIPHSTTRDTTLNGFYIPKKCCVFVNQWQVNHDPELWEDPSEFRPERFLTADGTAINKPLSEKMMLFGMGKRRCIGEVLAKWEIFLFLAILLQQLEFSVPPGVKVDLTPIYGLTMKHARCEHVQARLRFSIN
Procedure: as §1, §2, §3, §4, §5, §6, §7, §8, §9, §10, §11, §12, §13, §14, §15

[4] = target: CYP2C19 (Homo sapiens, UniProt P33261); test: as above
Procedure: as §1, §2, §3, §4, §5, §6, §7, §8, §9, §10, §11, §12, §13, §14, §15

[5] = target: CYP2D6 (Homo sapiens, UniProt P10635); test: as above
Procedure: as §1, §2, §3, §4, §5, §6, §7, §8, §9, §10, §11, §12, §13, §14, §15

[6] = test system: maximal electroshock-induced epilepsy model; test: Maximal electroshock-induced epilepsy model, behavioral pharmacodynamics; format: in vivo; conditions: dose 5 mg/kg, oral, one hour before electrical stimulation; male CD-1 mice
From the text: Assay Example 2: Evaluation of the behavioral pharmacodynamics of the test compounds in a maximal electroshock-induced epilepsy model
This study used behavioral tests in male CD-1 mice to investigate the effects of test compounds on acute epileptic seizures behavior induced by maximal electroshock.
Male CD-1 mice (25 to 35g) were used as the experimental animals and fed with standard feed (Beijing Vital River Laboratory Animal Technology Co., Ltd.).
After arriving at the animal facility, the experimental animals needed to acclimatize for at least one week. The mice were observed daily for vital signs, and randomly divided into groups according to their body weights one day before the drug administration. One hour before the electrical stimulation, different dosages of the test compound were orally administered to each group. On the day of the assay, the male CD-1 mice in each group were anesthetized locally at the cornea with 2% lidocaine. Then, silver bipolar electrodes were used to electrically stimulate the cornea of the mice with 18 mA, 60 Hz, a pulse width of 0.6 ms, and a stimulation time of 1 s to induce seizures. Subsequently, the latency of seizures and the duration of limb rigidity in mice after the electrical stimulation were observed, and the protection rate from seizures for each group was statistically analyzed.

[7] = target: T2, hKCNQ2/3 (Homo sapiens, UniProt O43525+O43526); test: cell-based
T2 construct: expressed in transfected cells; host or cells: CHO
From the text: Test Method 1: hKCNQ2/3 Thallium Flux Assay
Test Objective: To test the in vitro concentration-response relationship of compounds using FLIPR thallium flux assay in CHO cell lines stably expressing hKCNQ2/3.
According to the split ratio, the cells were transferred to another T-75 flask containing complete cell growth medium. Note: To maintain logarithmic growth, the cells should be kept in a subconfluent monolayer state. Based on the cell doubling time, the cells were passaged every 2-3 days.
• (1) Day 1 - Cell preparation: Cells were digested as described above, and cell density and viability were determined using a Cell Countess. The volume of the single-cell suspension was adjusted with complete cell growth medium. Then, hKCNQ2/3_CHO cells were seeded onto PDL-precoated 384-well plates at a density of approximately 20,000 cells/well (30 µL/well). The plates were then incubated overnight in a 37°C, 5% CO2 humidified air incubator. • (2) Day 2 - Compound preparation: Test compounds were diluted with dimethyl sulfoxide (DMSO) to stock concentrations and stored in a -20°C freezer. A compound addition program was set up on the ECHO liquid handler, and compounds were added to the plates using the ECHO liquid handler. Retigabine (RTG) was used as a positive control at a highest concentration of 100 µM with 3-fold serial dilutions for a total of 9 doses. Buffer containing 5 mM K^+ and 1 mM Tl^+ was added to the plates. Notes: 1) K2SO4 and Tl2SO4 were prepared in 1× chloride-free buffer. Depending on the voltage-gated potassium channel involved, the concentrations of Tl^+ and K^+ should be adjusted. Tl^+ concentration is approximately 0.5-5 mM, and K^+ concentration is approximately 5-30 mM. 2) Each 1 mM solution of K2SO4 and Tl2SO4 contains 2 mM K^+ and Tl^+; the final concentration should be calculated based on the ion concentration. 3) TlCl readily precipitates and a chloride-free buffer is required. • (3) Day 2 -Assay testing: Once the cells reached the desired confluence, the cell assay plates were removed from the incubator. Assay buffer and diluted Tl^+ dye (Molecular Devices # R8222) were prepared. The medium was discarded using a Bravo liquid handler, and 25 µL of Tl^+ dye was added to each well. After 1 hour of incubation, the cell assay plates, composite plates and FLIPR tips were placed in the FLIPR^TETRA (Molecular Devices, USA) for FLIPR detection. After setting up the tips, baseline readings were taken for 60 seconds, then 12.5 µL was added from the composite plate (3×) to the cell assay plate, and data were recorded for at least 5 minutes. • (4) Data processing: Maximum signals were generated by the FLIPR software. […] Data quality control: S/B > 2.00, Z factor > 0.50.
• (1) Day 1 - Cell preparation: Cells were digested as described above, and cell density and viability were determined using a Cell Countess. The volume of the single-cell suspension was adjusted with complete cell growth medium. Then, hKCNQ2/3_CHO cells were seeded onto PDL-precoated 384-well plates at a density of approximately 20,000 cells/well (30 µL/well). The plates were then incubated overnight in a 37°C, 5% CO2 humidified air incubator. • (2) Day 2 - Compound preparation: Test compounds were diluted with dimethyl sulfoxide (DMSO) to stock concentrations and stored in a -20°C freezer. A compound addition program was set up on the ECHO liquid handler, and compounds were added to the plates using the ECHO liquid handler. Retigabine (RTG) was used as a positive control at a highest concentration of 100 µM with 3-fold serial dilutions for a total of 9 doses. Buffer containing 5 mM K^+ and 1 mM Tl^+ was added to the plates. Notes: 1) K2SO4 and Tl2SO4 were prepared in 1× chloride-free buffer. Depending on the voltage-gated potassium channel involved, the concentrations of Tl^+ and K^+ should be adjusted. Tl^+ concentration is approximately 0.5 mM -5 mM, and K^+ concentration is approximately 5 mM -30 mM.

Sequence of CYP2D6 (P10635 whole entry): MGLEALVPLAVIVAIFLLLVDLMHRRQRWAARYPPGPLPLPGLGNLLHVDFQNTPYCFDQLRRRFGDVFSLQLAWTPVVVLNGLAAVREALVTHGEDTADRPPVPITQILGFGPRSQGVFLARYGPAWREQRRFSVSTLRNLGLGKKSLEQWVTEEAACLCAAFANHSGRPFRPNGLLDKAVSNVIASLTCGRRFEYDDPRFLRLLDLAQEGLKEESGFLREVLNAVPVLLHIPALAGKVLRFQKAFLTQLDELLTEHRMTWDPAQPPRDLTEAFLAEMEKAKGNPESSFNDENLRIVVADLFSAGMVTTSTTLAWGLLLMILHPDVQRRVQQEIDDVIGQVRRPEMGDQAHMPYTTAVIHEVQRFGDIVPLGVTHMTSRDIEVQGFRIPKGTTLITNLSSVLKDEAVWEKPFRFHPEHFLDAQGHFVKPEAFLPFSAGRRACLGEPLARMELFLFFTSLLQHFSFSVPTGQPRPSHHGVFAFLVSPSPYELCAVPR
Sequence of CYP3A4 (P08684 2-503): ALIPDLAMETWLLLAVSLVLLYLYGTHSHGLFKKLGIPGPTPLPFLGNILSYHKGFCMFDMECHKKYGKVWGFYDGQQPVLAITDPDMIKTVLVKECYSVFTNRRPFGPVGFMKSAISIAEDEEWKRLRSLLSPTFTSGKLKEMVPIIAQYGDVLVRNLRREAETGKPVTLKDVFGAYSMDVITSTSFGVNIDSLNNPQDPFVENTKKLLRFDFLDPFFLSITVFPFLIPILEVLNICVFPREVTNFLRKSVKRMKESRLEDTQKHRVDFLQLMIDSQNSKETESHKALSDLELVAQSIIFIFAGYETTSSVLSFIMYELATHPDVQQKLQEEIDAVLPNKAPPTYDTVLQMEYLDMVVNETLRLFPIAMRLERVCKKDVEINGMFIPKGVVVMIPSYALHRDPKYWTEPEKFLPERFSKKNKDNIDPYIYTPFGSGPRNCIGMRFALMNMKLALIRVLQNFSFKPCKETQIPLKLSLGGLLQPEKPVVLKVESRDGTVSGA
Sequence of CYP2C19 (P33261 whole entry): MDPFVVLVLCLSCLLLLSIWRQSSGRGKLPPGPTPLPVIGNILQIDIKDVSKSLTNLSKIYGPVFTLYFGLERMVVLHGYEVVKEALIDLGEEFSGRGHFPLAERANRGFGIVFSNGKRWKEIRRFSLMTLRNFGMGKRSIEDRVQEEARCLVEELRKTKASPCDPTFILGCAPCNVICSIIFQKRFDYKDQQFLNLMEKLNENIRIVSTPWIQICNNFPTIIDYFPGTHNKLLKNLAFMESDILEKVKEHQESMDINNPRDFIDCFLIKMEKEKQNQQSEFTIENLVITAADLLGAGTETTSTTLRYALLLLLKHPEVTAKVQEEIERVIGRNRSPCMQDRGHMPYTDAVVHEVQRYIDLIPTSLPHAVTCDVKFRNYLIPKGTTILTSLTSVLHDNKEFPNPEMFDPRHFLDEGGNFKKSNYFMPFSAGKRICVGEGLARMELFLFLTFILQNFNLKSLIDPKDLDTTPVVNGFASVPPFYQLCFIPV
Sequence of CYP2C9 (P11712 whole entry): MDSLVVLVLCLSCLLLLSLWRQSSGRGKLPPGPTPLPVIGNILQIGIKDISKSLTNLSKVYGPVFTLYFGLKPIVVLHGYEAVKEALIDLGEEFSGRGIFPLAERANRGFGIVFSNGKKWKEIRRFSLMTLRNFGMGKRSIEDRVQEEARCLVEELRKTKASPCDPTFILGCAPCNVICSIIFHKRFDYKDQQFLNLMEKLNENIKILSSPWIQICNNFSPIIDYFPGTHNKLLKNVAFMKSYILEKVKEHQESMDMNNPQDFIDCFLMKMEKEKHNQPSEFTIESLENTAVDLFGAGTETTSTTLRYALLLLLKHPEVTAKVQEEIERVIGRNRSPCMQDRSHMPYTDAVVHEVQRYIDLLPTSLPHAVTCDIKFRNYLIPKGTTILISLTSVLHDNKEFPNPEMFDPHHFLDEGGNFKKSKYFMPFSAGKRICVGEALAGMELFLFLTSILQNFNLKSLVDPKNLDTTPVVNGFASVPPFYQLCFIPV
T2 sequence (O43526 whole entry): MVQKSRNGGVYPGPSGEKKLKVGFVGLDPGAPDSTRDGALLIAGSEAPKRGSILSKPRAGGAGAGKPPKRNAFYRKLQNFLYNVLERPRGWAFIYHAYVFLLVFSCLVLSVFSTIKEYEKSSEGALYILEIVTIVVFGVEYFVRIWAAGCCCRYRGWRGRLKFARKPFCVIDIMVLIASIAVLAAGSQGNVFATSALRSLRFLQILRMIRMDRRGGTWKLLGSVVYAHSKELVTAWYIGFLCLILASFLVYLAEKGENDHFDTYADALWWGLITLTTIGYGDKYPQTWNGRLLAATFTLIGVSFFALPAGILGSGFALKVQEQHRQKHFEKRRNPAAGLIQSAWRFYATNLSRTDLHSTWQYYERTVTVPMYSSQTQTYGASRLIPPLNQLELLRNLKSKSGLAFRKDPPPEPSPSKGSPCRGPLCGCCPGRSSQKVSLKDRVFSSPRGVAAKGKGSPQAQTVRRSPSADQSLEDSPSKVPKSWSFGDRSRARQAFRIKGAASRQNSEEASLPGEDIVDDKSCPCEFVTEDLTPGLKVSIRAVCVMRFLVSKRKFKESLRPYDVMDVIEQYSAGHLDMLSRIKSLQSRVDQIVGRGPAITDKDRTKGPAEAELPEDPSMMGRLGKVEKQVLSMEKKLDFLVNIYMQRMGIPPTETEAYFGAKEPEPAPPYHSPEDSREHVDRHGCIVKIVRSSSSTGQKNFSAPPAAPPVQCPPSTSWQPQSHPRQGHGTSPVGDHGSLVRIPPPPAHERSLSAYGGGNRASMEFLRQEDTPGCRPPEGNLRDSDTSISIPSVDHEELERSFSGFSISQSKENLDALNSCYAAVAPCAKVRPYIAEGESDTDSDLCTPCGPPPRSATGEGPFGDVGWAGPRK
T2 sequence (O43525 whole entry): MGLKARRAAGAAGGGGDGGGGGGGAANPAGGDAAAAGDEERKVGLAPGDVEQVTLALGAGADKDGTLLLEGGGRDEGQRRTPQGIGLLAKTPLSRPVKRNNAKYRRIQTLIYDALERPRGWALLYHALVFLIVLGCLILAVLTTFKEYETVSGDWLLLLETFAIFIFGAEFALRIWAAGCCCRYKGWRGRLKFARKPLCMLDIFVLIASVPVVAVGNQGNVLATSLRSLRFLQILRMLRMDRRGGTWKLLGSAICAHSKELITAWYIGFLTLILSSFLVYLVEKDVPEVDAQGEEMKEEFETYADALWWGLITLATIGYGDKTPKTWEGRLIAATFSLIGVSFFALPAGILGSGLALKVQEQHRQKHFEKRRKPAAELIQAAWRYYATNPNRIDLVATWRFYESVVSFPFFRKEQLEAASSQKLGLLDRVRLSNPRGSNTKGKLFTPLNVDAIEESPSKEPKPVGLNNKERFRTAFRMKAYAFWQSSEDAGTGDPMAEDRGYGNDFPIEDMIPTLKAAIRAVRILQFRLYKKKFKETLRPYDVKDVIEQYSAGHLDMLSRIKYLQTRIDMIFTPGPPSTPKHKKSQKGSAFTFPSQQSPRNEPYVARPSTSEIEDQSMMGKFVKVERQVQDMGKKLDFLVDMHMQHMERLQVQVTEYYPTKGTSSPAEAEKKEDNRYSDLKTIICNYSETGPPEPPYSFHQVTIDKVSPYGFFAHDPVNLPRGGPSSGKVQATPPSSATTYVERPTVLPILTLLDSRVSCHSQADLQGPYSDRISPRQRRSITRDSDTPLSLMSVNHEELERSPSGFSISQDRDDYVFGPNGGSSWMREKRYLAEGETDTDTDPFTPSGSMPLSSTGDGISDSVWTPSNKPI

Cc1cc(F)cnc1Nc1ccc2c(C)c(NC(=O)CC(C)(C)C)n(C)c2c1 [Compound 31]
IC50 [1]: > 50 µM
IC50 [2]: > 50 µM
IC50 [3]: > 50 µM
IC50 [4]: > 50 µM
IC50 [5]: > 50 µM
Seizure incidence (%) [6]: 16.7%

Cc1c(NC(=O)CC2(C)CC2)n(C)c2cc(Nc3ncc(F)cc3F)ccc12 [Compound 35]
IC50 [1]: > 50 µM
IC50 [2]: > 50 µM
IC50 [3]: > 50 µM
IC50 [4]: > 50 µM
IC50 [5]: > 50 µM
EC50 [7]: 0.49 µM
